Legend:
Format in all cases: cell-based
[1] = tested on: Staphylococcus aureus ATCC 6538; experiment: AOAC Official Method 961.02 Germicidal Spray Method, bacteria on glass carriers; settings: for Staphylococcus aureus Growth Rate: 10 min contact; for killing Staphylococcus aureus: 1.0% QAH
Excerpt: (§1) In this method, a series of glass slides (“carriers”) were inoculated with a representative test organism and the carriers were dried under ambient conditions. The dried organisms on the surface of the carrier were then sequentially treated with the composition of the present disclosure in the form of a spray product and were exposed for a pre-determined exposure time. After exposure, the carriers were sequentially transferred to a liquid subculture medium specifically selected to neutralize the composition of the present disclosure and to recover any surviving test organism. The carriers were incubated and visually examined for the presence or absence of growth. […] Required organisms for a disinfection claim include but are not limited to Staphylococcus aureus, Salmonella choleraesuis and Pseudomonas aeruginosa.
(§2) Method Adapted to the Preparation of Bacteria Cultures from −80° C. Freshly Recovered Stock. […] Added 10 μL of the thawed stock to a tube containing 10 mL synthetic broth and then vortexed to mix. Discarded the rest of cryovial stock. • Incubated the tube at 36 ±1° C. for 24 hours (h). Briefly vortexed the 24 h culture prior to transfer. For this final subculture step, inoculated two 20×150 mm tubes containing 10 mL synthetic broth with […] of the 24 h synthetic broth culture. • Incubated 48 h at 36±1° C. Using a Vortex-style mixer, mixed synthetic broth test cultures 3-4 seconds and let stand 10 minutes at room temperature before continuing. Removed the upper portion of each culture, leaving behind any debris or clumps, and transferred to a sterile tube. Titrated the culture by plating on synthetic agar plates, and diluted to 5×10^8 Colony Forming Units (CFU) per mL.
(§3) High volume screening studies were conducted in some cases where only 4 organism-inoculated carriers were treated at specified concentrations of CTAB. Vortex-mixed the inoculum periodically during inoculation of the carriers. • Immediately spread the inoculum uniformly over the majority of the carrier surface using a sterile loop. […] Covered dish immediately and repeated operation until 64 carriers had been prepared for the test. Once all of the carriers had been inoculated, placed in incubator at 37° C. for 40 minutes until dry.
(§4) • After the test organisms were dried on the surface of the carrier, each carrier was sprayed with the respective disinfection formulae 10 times in 10 seconds at a distance of 30 cm. • Treatment interval was timed. Ten (10) minutes after each carrier had been sprayed by the disinfectant, the excess liquid was removed and the carriers were transferred in a sequentially timed fashion into the culture tubes containing 20 ml neutralizer (Letheen Broth with 0.07% Lecithin/0.5% Tween 80/0.1% Sodium Thiosulfate) to neutralize the disinfectant. […] The percentage of the treated carriers showing growth after 48 hours was recorded.

[2] = tested on: Pseudomonas aeruginosa ATCC 15442; experiment: as above; settings: 10 min contact
Excerpt: as §1, §2, §3, §4

[3] = tested on: Penicillium variable ATCC 32333; experiment: AOAC Official Method 961.02 Germicidal Spray Method, fungal conidia on glass carriers; settings: 10 min contact
Excerpt: as §1
(§5) The conidiospore suspension was macerated in a tissue grinder. The suspension was filtered through sterile cotton to remove the hyphae and hyphal fragments.
(§6) Vortex-mixed the inoculum periodically during inoculation of the carriers. • Immediately spread the inoculum uniformly over the majority of the carrier surface using a sterile loop. […] High volume screening studies were conducted in some cases where only 4 organism-inoculated carriers were treated at specified concentrations of CTAB. Once all of the carriers had been inoculated, the carriers were placed in an incubator at 37° C. for 40 minutes until completely dry.
(§7) • After drying, each carrier was sprayed with the respective disinfection formulae 10 times in 10 seconds at a distance of 30 cm. • Timed the treatment interval. Ten (10) minutes after each carrier had been exposed to the disinfectant, the excess liquid was removed and the carriers were transferred in a sequentially timed fashion into the culture tubes containing 20 ml neutralization broth (Letheen Broth with 0.07% Lecithin /0.5% Tween 80) to neutralize the disinfectant. • After the carriers were deposited in the respective culture tubes, the tubes were recapped and the cultures were thoroughly resuspended. • Incubated all neutralization tubes at 28 ±1° C. for 14 days. • After 14 days, the cultures within the tubes were examined for growth. The percentage of the treated carriers showing growth was recorded.

[4] = tested on: Trichophyton mentagrophytes ATCC 9533; experiment: as above; settings: 10 min contact
Excerpt: as §1, §5, §6, §7

[5] = tested on: Aspergillus niger ATCC 6275; experiment: as above; settings: 10 min contact
Excerpt: as §1, §5, §6, §7

[6] = tested on: select bacteria and fungal organisms; experiment: Germicidal spray disinfection, summary over the tested organisms; settings: 0.01% QAH in CMC; 10-minute contact time
Description: All experiments were conducted according to the protocol outlined in AOAC Official Method 961.02 (Germicidal Spray Method), which is a carrier-based method used to evaluate disinfection efficacy of aerosol/pump-based spray products and liquid products for registration with regulatory agencies such as the U.S. EPA and Health Canada.
It was expected that if the CTAB was replaced by QAH's of similar structure that the disinfection of selected bacteria and fungal organisms would be similarly achieved. […] In the case of bacteria testing, the experimental procedure was as outlined in Example 1 for disinfection of bacterial cultures. In the case of fungal organisms, the experimental procedure was as outlined in Example 1 for the preparation of fungal cultures.

Row | Molecule | Staphylococcus aureus Growth Rate ([1]; CMC + QAH, QAH 0.010%) | Staphylococcus aureus Growth Rate ([1]; CMC + QAH, QAH 0.100%) | Staphylococcus aureus Growth Rate ([1]; CMC + QAH, QAH 1.000%) | Staphylococcus aureus Growth Rate ([1]; Water + QAH, QAH 0.010%) | Staphylococcus aureus Growth Rate ([1]; Water + QAH, QAH 0.100%) | Staphylococcus aureus Growth Rate ([1]; Water + QAH, QAH 1.000%) | Pseudomonas aeruginosa Growth Rate ([2]; CMC + QAH, QAH 0.010%) | Pseudomonas aeruginosa Growth Rate ([2]; CMC + QAH, QAH 0.100%) | Pseudomonas aeruginosa Growth Rate ([2]; CMC + QAH, QAH 1.000%) | Pseudomonas aeruginosa Growth Rate ([2]; Water + QAH, QAH 0.010%) | Pseudomonas aeruginosa Growth Rate ([2]; Water + QAH, QAH 0.100%) | Pseudomonas aeruginosa Growth Rate ([2]; Water + QAH, QAH 1.000%) | Penicillium variable Growth Rate ([3]; CMC + QAH, QAH 0.010%) | Penicillium variable Growth Rate ([3]; CMC + QAH, QAH 0.100%) | Penicillium variable Growth Rate ([3]; CMC + QAH, QAH 1.000%) | Penicillium variable Growth Rate ([3]; Water + QAH, QAH 0.010%) | Penicillium variable Growth Rate ([3]; Water + QAH, QAH 0.100%) | Penicillium variable Growth Rate ([3]; Water + QAH, QAH 1.000%) | Trichophyton mentagrophytes Growth Rate ([4]; CMC + QAH, QAH 0.010%) | Trichophyton mentagrophytes Growth Rate ([4]; CMC + QAH, QAH 0.100%) | other results
1 | CCCCCCCCCCCCCCCC[N+](C)(C)Cc1ccccc1.[Cl-] [BDAC, Benzyl-dimethylhexadecylammonium chloride] | 0% | 0% | 0% | 100% | 0% | 0% | 0% | 0% | 0% | 100% | 25% | 25% | 0% | 0% | 0% | 0% | 0% | 0% | 0% | 0% | Trichophyton mentagrophytes Growth Rate ([4]; CMC + QAH, QAH 1.000%): 0%; Trichophyton mentagrophytes Growth Rate ([4]; Water + QAH, QAH 0.010%): 0%; Trichophyton mentagrophytes Growth Rate ([4]; Water + QAH, QAH 0.100%): 0%; Trichophyton mentagrophytes Growth Rate ([4]; Water + QAH, QAH 1.000%): 0%; Aspergillus niger Growth Rate ([5]; CMC + QAH, QAH 0.010%): 100%; Aspergillus niger Growth Rate ([5]; CMC + QAH, QAH 0.100%): 25%; Aspergillus niger Growth Rate ([5]; CMC + QAH, QAH 1.000%): 0%; Aspergillus niger Growth Rate ([5]; Water + QAH, QAH 0.010%): 100%; Aspergillus niger Growth Rate ([5]; Water + QAH, QAH 0.100%): 75%; Aspergillus niger Growth Rate ([5]; Water + QAH, QAH 1.000%): 0%; effectiveness against the target organisms [6]: remarkable effectiveness
2 | CCCC[N+](CCCC)(CCCC)Cc1ccccc1.[Cl-] [BTBAC, Benzyltri-n-butylammonium chloride] | 100% | 100% | 100% | 100% | 100% | 100% | – | – | – | – | – | – | – | – | – | – | – | – | – | – | killing Staphylococcus aureus [1]: incapable of killing
3 | CC[N+](CC)(CC)Cc1ccccc1.[Cl-] [BTEAC, Benzyltriethylammonium chloride] | 100% | 100% | 75% | 100% | 100% | 100% | – | – | – | – | – | – | – | – | – | – | – | – | – | – | killing Staphylococcus aureus [1]: incapable of killing
4 | CC(C)(C)CC(C)(C)c1ccc(OCCOCC[N+](C)(C)Cc2ccccc2)cc1 [BZT, Benzethonium chloride] | 0% | 0% | 100% | 100% | 25% | 0% | 0% | 0% | 0% | 100% | 100% | 100% | 0% | 0% | 0% | 0% | 0% | 0% | 0% | 0% | Trichophyton mentagrophytes Growth Rate ([4]; CMC + QAH, QAH 1.000%): 0%; Trichophyton mentagrophytes Growth Rate ([4]; Water + QAH, QAH 0.010%): 0%; Trichophyton mentagrophytes Growth Rate ([4]; Water + QAH, QAH 0.100%): 0%; Trichophyton mentagrophytes Growth Rate ([4]; Water + QAH, QAH 1.000%): 0%; Aspergillus niger Growth Rate ([5]; CMC + QAH, QAH 0.010%): 50%; Aspergillus niger Growth Rate ([5]; CMC + QAH, QAH 0.100%): 0%; Aspergillus niger Growth Rate ([5]; CMC + QAH, QAH 1.000%): 0%; effectiveness against the target organisms [6]: remarkable effectiveness
5 | CCCCCCCCCCCCCCCCCC[N+](C)(C)C.[Cl-] [TMSAC, Trimethylstearylammonium chloride] | 0% | 0% | 0% | 100% | 100% | 50% | 0% | 0% | 0% | 100% | 50% | 0% | 0% | 0% | 0% | 0% | 0% | 0% | 0% | 0% | Trichophyton mentagrophytes Growth Rate ([4]; CMC + QAH, QAH 1.000%): 0%; Trichophyton mentagrophytes Growth Rate ([4]; Water + QAH, QAH 0.010%): 0%; Trichophyton mentagrophytes Growth Rate ([4]; Water + QAH, QAH 0.100%): 0%; Trichophyton mentagrophytes Growth Rate ([4]; Water + QAH, QAH 1.000%): 0%; effectiveness against the target organisms [6]: remarkable effectiveness
6 | Alkyldimethylbenzylammonium chloride [ADBAC] | – | – | – | – | – | – | 0% | 0% | 0% | 0% | 0% | 0% | 0% | 0% | 0% | 0% | 0% | 0% | 0% | 0% | Trichophyton mentagrophytes Growth Rate ([4]; CMC + QAH, QAH 1.000%): 0%; Trichophyton mentagrophytes Growth Rate ([4]; Water + QAH, QAH 0.010%): 0%; Trichophyton mentagrophytes Growth Rate ([4]; Water + QAH, QAH 0.100%): 0%; Trichophyton mentagrophytes Growth Rate ([4]; Water + QAH, QAH 1.000%): 0%; Aspergillus niger Growth Rate ([5]; CMC + QAH, QAH 0.010%): 100%; Aspergillus niger Growth Rate ([5]; CMC + QAH, QAH 0.100%): 0%; Aspergillus niger Growth Rate ([5]; CMC + QAH, QAH 1.000%): 0%; Aspergillus niger Growth Rate ([5]; Water + QAH, QAH 0.010%): 100%; Aspergillus niger Growth Rate ([5]; Water + QAH, QAH 0.100%): 100%; Aspergillus niger Growth Rate ([5]; Water + QAH, QAH 1.000%): 0%; effectiveness against the target organisms [6]: remarkable effectiveness

Source: patent US20200245616A1, “A Disinfectant Composition with Extended Antimicrobial Effects” (Siamons International Inc., priority 2017, published 2020)
